The nature of the series: Tebuconazole concentration in the sprayed composition, determined by chromatograph. Format: physicochemical. Here is the method:
After the storage period of two weeks, each of the concentrates A to E was diluted with water. 10 liters of spraying compositions were prepared using hard water (CIPAC standard water D, 342 ppm) in 3 different concentrations: 0.5, 1, and 2 times the recommended spraying concentration for each concentrate.
Each diluted composition was sprayed using a personal spraying machine and using one spray nozzle equipped with 200 mesh screen. A sample of each composition was collected leaving the spraying machine after spraying.
Further, every sample of the spray compositon was analyzed in a chromatograph to determine the concentration of tebuconazole in the composition as it would be reaching the locus to be treated. […]

`CC(C)(C)C(O)(CCc1ccc(Cl)cc1)Cn1cncn1` (stereo not drawn) [Tebuconazole] yielded a Tebuconazole concentration (0.5% dilution, 0 hr) of 2064 ppm; a Tebuconazole concentration (0.5% dilution, 1 hr) of 2039 ppm; a Tebuconazole concentration (0.5% dilution, 2 hr) of 2009 ppm; a Tebuconazole concentration (0.5% dilution, 3 hr) of 1969 ppm; a Tebuconazole concentration (0.5% dilution, 4 hr) of 1924 ppm; a Tebuconazole concentration (1.0% dilution, 0 hr) of 4150 ppm. In addition, the Tebuconazole concentration runs as follows: (1.0% dilution, 1 hr) 4123 ppm; (1.0% dilution, 2 hr) 4091 ppm; (1.0% dilution, 3 hr) 4052 ppm; (1.0% dilution, 4 hr) 4007 ppm; (2.0% dilution, 0 hr) 8300 ppm; (2.0% dilution, 1 hr) 8272 ppm. This molecule had a Tebuconazole concentration (2.0% dilution, 2 hr) of 8237 ppm; a Tebuconazole concentration (2.0% dilution, 3 hr) of 8197 ppm; a Tebuconazole concentration (2.0% dilution, 4 hr) of 8152 ppm.
